{"source": "paper PMC6962532", "about": "(Journal of the American Chemical Society, 2020)", "origin": "cited, not measured here", "key": {"AgrC-I": {"tested_on": "AgrC-I", "details": "for activity of native AIP signal on AgrC-I: cross-group interaction"}, "AgrC-III": {"tested_on": "AgrC-III", "details": "cross-group interaction"}, "AgrC-II": {"tested_on": "AgrC-II", "details": "cross-group interaction"}}, "data": [{"substance": "N-A-A-K-Y-N-P-(C-A-S-Y-L) [AIP-III]", "values": [{"measurement": "activity of native AIP signal on AgrC-I", "setting": "AgrC-I", "result": "inhibit"}]}, {"substance": "N-A-S-K-Y-N-P-(C-S-N-Y-L) [AIP-II]", "values": [{"measurement": "activity of native AIP signal on AgrC-I", "setting": "AgrC-I", "result": "inhibit"}]}, {"substance": "D-S-A-(C-A-S-Y-F) [AIP-I V3A]", "values": [{"measurement": "antagonism potency relative to t-AIP-I", "setting": "AgrC-I; AgrC-I", "result": "approximately four-fold more potent"}]}, {"substance": "D-S-V-(C-A-S-Y-F) [AIP-I]", "values": [{"measurement": "activity of native AIP signal on AgrC-III", "setting": "AgrC-III", "result": "inhibits"}, {"measurement": "activity of native AIP signal on AgrC-II", "setting": "AgrC-II", "result": "inhibits"}]}, {"substance": "A-S-A-(C-A-A-Y-F) [AAA]", "values": [{"measurement": "IC50 value", "setting": "AgrC-I; AgrC-I, in words", "result": "single-digit nanomolar"}]}]}
